Assay results as given in ChEMBL document CHEMBL5614378, “Novel compounds with dual inhibition activity against SARS-CoV-2 critical enzymes RdRp and human TMPRSS2” (Eur J Med Chem, 2024).
Active and inactive are the calls of the source. The calls are words filed in the database; no cut-off is given here.

How the values were obtained:
[1] = Cytotoxicity against human Calu-3 cells; type: toxicity, cell-based
SARS-CoV-2 [2] = type: functional; details: Severe acute respiratory syndrome coronavirus 2, Calu-3, 96 h; dose 30 nM; time 4 day
SARS-CoV-2 [3] = type: functional; details: Severe acute respiratory syndrome coronavirus 2, Calu-3, 96 h; dose 15 nM; time 4 day
SARS-CoV-2 [4] = experiment: microbe, parasite or virus in culture; details: Severe acute respiratory syndrome coronavirus 2, NRC-03-nhCoV, Calu-3, 72 h
Description: Anti-SARS-CoV-2 activity against SARS-CoV-2 NRC-03-nhCoV infected in human Calu-3 cells expressing TMPRSS2 assessed as inhibition of viral replication incubated for 72 hrs by crystal violet staining based analysis

in vitro = details: monkey, Vero E6 cells
Description: Selectivity index, ratio of CC50 for cytotoxicity against African green monkey Vero E6 cells to IC50 for anti-SARS-CoV-2 activity against SARS-CoV-2 NRC-03-nhCoV infected in African green monkey Vero E6 cells

SARS-CoV-2 [5] = experiment: microbe, parasite or virus in culture; details: Severe acute respiratory syndrome coronavirus 2, NRC-03-nhCoV, Vero C1008, 72 h
Description: Anti-SARS-CoV-2 activity against SARS-CoV-2 NRC-03-nhCoV infected in African green monkey Vero E6 cells assessed as inhibition of viral replication incubated for 72 hrs by crystal violet staining based analysis

[6] = biological target: Replicase polyprotein 1ab (Severe acute respiratory syndrome coronavirus 2) (UniProt P0DTD1); experiment: Inhibition of SARS-CoV-2 recombinant RdRp at 50 ug/ml preincubated with enzyme for 15 mins followed by single stranded polyribonucleotide template and NTPs addition and measured after 2 hrs by fluorescence spectrometric analysis relative to control; details: dose 50.0 µg/ml, time 135.0 min
[7] = biological target: Replicase polyprotein 1ab (Severe acute respiratory syndrome coronavirus 2, UniProt P0DTD1); experiment: Inhibition of SARS-CoV-2 recombinant RdRp preincubated with enzyme for 15 mins followed by single stranded polyribonucleotide template and NTPs addition and measured after 2 hrs by fluorescence spectrometric analysis
SARS-CoV-2 [8] = type: functional, Vero E6; details: Severe acute respiratory syndrome coronavirus 2, Vero C1008, 72 h, time 3 day
SARS-CoV-2 [9] = type: functional; details: for inhibition at 10 µg/mL: Severe acute respiratory syndrome coronavirus 2, Vero C1008, 72 h, time 3 day
SARS-CoV-2 [10] = type: functional; details: for inhibition at 10 µg/mL: Severe acute respiratory syndrome coronavirus 2, Vero C1008, 96 h, time 4 day

Row | Compound | selectivity ratio (in vitro) | IC50 (SARS-CoV-2 [5]) | inhibition [6] | IC50 [7] | inhibition at 10 µg/mL (SARS-CoV-2 [8]) | further results
1 | CN(C)C(=O)COC(=O)Cc1ccc(OC(=O)c2ccc(NC(=N)N)cc2)cc1 [CAMOSTAT] | – | – | – | – | – | CC50 [1]: 230 nM; inhibition at 0.03 µM (SARS-CoV-2 [2]): 80%; inhibition at 0.015 µM (SARS-CoV-2 [3]): 70%; IC50 (SARS-CoV-2 [4]): 8.21 nM
2 | O=C(Nc1ccn(C2OC(CO)C(O)C2O)c(=O)n1)c1ccc(Nc2ncccn2)cc1 (stereo unspecified) | 7.18 | 52 nM | – | – | – | –
3 | N#C[C@@]1(c2ccc3c(NC(=O)c4ccc(Nc5ncccn5)cc4)ncnn23)O[C@H](CO)[C@@H](O)[C@H]1O | 2.64 | 19.7 nM | 77% | 32.4 nM | 51.3% | inhibition (SARS-CoV-2 [9]; Severe acute respiratory syndrome coronavirus 2, Vero E6, dose 10.0 µg/ml, time 3.0 day): inactive; inhibition (SARS-CoV-2 [10]; Severe acute respiratory syndrome coronavirus 2, Vero E6, dose 10.0 µg/ml, time 4.0 day): inactive
4 | N=C(N)Nc1ccc(C(=O)Nc2ncnc3[nH]cnc23)cc1 | 1 | 22.8 nM | – | – | – | –
5 | N#C[C@@]1(c2ccc3c(NC(=O)c4ccc(NC(=N)N)cc4)ncnn23)O[C@H](CO)[C@@H](O)[C@H]1O | – | 3.9 nM | 91.5% | 6.1 nM | 66% | inhibition at 10 µg/mL (SARS-CoV-2 [9]): 51.4%; inhibition at 10 µg/mL (SARS-CoV-2 [10]): 44%
6 | CC(C)(C)OC(=O)Nc1ccc(C(=O)Nc2ncnn3c([C@]4(C#N)O[C@H](CO)[C@@H](O)[C@H]4O)ccc23)cc1 | 6.65 | 42.2 nM | – | – | – | –
7 | CCC(CC)COC(=O)[C@H](C)N[P@](=O)(OC[C@H]1O[C@@](C#N)(c2ccc3c(N)ncnn23)[C@H](O)[C@@H]1O)Oc1ccccc1 [REMDESIVIR] | 3.02 | 55.6 nM | 73% | – | – | –
8 | CC(C)c1cc(=O)oc2ccc(OC(=O)c3ccc(NC(=N)N)cc3)cc12 | – | 5.7 nM | 89% | 4.42 nM | 63.2% | CC50 [1]: 450 nM; inhibition at 10 µg/mL (SARS-CoV-2 [9]): 90.5%; inhibition at 10 µg/mL (SARS-CoV-2 [10]): 65%; inhibition at 0.03 µM (SARS-CoV-2 [2]): 60%; inhibition at 0.015 µM (SARS-CoV-2 [3]): 45%; IC50 (SARS-CoV-2 [4]): 17.5 nM
